Data set [1] relates to curly tail (ct/ct) embryos. The data set is described as follows: Frequency of spina bifida, tail flexion defects and straight tails in curly tail embryos after maternal supplementation. The class given is in vivo, mouse. The following applies: for frequency of straight-tailed (unaffected) embryos compared with controls: all embryos; for frequency of straight-tailed (unaffected) embryos compared with controls / frequency of spina bifida compared with controls: z-test; for frequency of spina bifida compared with controls: maternal i.p. 20 mg/kg each reagent daily E7.5-10.5, embryos scored E11.5-13.5. From the text:
The curly tail (ct) mouse is considered a useful model for NTDs owing to a number of characteristics that resemble the corresponding defects in humans. These include a multifactorial etiology (with effects of both genetic and environmental factors), location of spina bifida lesions at the lumbosacral level, the presence of elevated alpha-fetoprotein in the amniotic fluid and a female excess among exencephalic embryos. […] The closure defects in ct/ct embryos are a mechanical consequence of excessive ventral curvature of the caudal region of the embryo. This, in turn, results from a dorso-ventral growth imbalance caused by a diminished cellular proliferation rate in the hindgut endoderm. In addition to spina bifida, cranial NTDs (exencephaly) also occur at low frequency among curly tail embryos (approximately 5%), but the cellular basis for these defects is not known. Curly tail mice were maintained as a closed random-bred colony as described in Van […] et al (Anat Embryol 2001 203: 225-237). […] Any resorptions were recorded. Crown-rump length was measured using an eyepiece graticule. Statistical analysis was carried out using SigmaStat (version 3.5; Systat Software Inc). Proportions were compared by z-test. Comparisons of mean values were made by […] or by One Way ANOVA with pairwise analysis by Holm-Sidak test. Embryos removed from pregnant females at E11.5-13.5 were scored for the outcome of low spinal neurulation as: normal (ST, straight tail), tail flexion defect (CT, curled tail), or open spina bifida which was always associated with a tail flexion defect (SB plus CT). Tail flexion defects arise when closure of the neural tube is delayed but does ultimately occur.

Data set [2] relates to curly tail embryos. Description: Frequency of exencephaly (cranial NTDs) among curly tail embryos after maternal supplementation. In kind it is in vivo, mouse. The following applies: maternal i.p. 20 mg/kg each reagent daily E7.5-10.5; controls 6.8%. The method, then: The closure defects in ct/ct embryos are a mechanical consequence of excessive ventral curvature of the caudal region of the embryo. This, in turn, results from a dorso-ventral growth imbalance caused by a diminished cellular proliferation rate in the hindgut endoderm. In addition to spina bifida, cranial NTDs (exencephaly) also occur at low frequency among curly tail embryos (approximately 5%), but the cellular basis for these defects is not known. […] Any resorptions were recorded. Crown-rump length was measured using an eyepiece graticule. The frequency of exencephaly (cranial NTDs) among genetically predisposed curly tail embryos was also assessed. The frequency of exencephaly was 6.8% among embryos from control litters. There was a trend towards diminished frequency of exencephaly among embryos treated with thymidine and adenine, thymidine and GMP, or thymidine only, compared with controls (3.0%, 2.5% and 2.7% respectively, see FIG. 4).

In data set [3] the test system is curly tail mice. As to conditions: female, mouse, in vivo. The method, then:
Experimental litters were generated by overnight mating with the day of finding a copulation plug designated embryonic day (E) 0.5. Maternal supplementation was performed daily from E7.5-10.5.
Treatments were: control (water only), thymidine+adenine, thymidine+hypoxanthine, thymidine+GMP, thymidine only, adenine only (all reagents from Sigma). GMP was used instead of guanine owing to solubility considerations in preparing solutions for injection. Animal studies were carried out under regulations of the Animals (Scientific Procedures) Act 1986 of the UK Government, and in according with guidance issued by the Medical Research Council, UK in Responsibility in the Use of Animals for Medical Research (July 1993).
Collection of Embryos Litters were dissected from the uterus, at E11.5-13.5, in Dulbecco's Modified Eagle's Medium containing 10% fetal calf serum and assessed for presence of neural tube defects (NTDs) under a light microscope. Any resorptions were recorded. Crown-rump length was measured using an eyepiece graticule.
In order to evaluate potential effects of treatment on litter size or embryonic viability, the number of embryos in each litter was recorded together with the presence of dead or resorbed embryos.

For data set [4], the system named is genomic DNA. The data set is described as follows: Incorporation of tritiated nucleotide precursors into genomic DNA in embryo culture. As to conditions: embryos cultured E9.5-10.5, mean ± SEM, n = 3. Also noted: species or system mouse. As to the method:
Embryos were explanted at E9.5 and cultured for 24 hours in rat serum as described previously (Cockroft, In: Copp […], editors. Postimplantation Mammalian Embryos: A Practical Approach. Oxford: […] DNA concentration was determined by NanoDrop.

Data set [5] concerns neural tube defects. The following applies: cited from earlier work.
The test system of data set [6] is ct/ct embryos. The following applies: supplementation; cited from earlier work.

Turning to `Cc1cn([C@H]2C[C@H](O)[C@@H](CO)O2)c(=O)[nH]c1=O` [Thy only, thymidine], the “frequency of straight-tailed (unaffected) embryos compared with controls” value in data set [1] (listed as Thy) is reported as “significantly higher”; in data set [1] (listed as thymidine only), “higher frequency”. The “proportion of unaffected, straight tail embryos within litter compared with controls” value in data set [1] (litter-by-litter analysis, One Way ANOVA) is “not statistically significant”. For the same compound, the “frequency of spina bifida compared with controls” value in data set [1] (20 mg/kg) is on record as “trend towards reduced spina bifida frequency”; in data set [1] (listed as thymidine alone, 20 mg/kg), “trend towards reduced frequency”. Moreover, in data set [2], the frequency of exencephaly is 2.7%. This compound came in with a Mean litter size in data set [3] of 7.4 ± 0.8. The Resorption per litter in data set [3] is recorded as 0.9 ± 0.4.

Regarding `Cc1cn([C@H]2C[C@H](O)[C@@H](CO)O2)c(=O)[nH]c1=O` [[^3H]-thymidine], in data set [4] (37,000 Bq/ml, 0.07 nmol/ml), the “[^3H] incorporation into genomic DNA” value is given as 898.4 ± 98.0 cpm/μg.

As for `Nc1ncnc2nc[nH]c12` [Ade only, adenine], in data set [1], the “frequency of spina bifida compared with controls” value is on record as “no effect”. For the same compound, in data set [3], the Mean litter size is reported as 7.5 ± 0.7 and the Resorption per litter is on record as 0.8 ± 0.3.

As for `Nc1nc2ncc(CNc3ccc(C(=O)N[C@@H](CCC(=O)O)C(=O)O)cc3)nc2c(=O)[nH]1` [folic acid], in data set [5] (5 mg/day, women with a previous affected pregnancy), the “reduction of NTD recurrence risk” value was around 70%. Besides, in data set [5] (USA, fortification of bread flour), the “reduction in the prevalence of NTDs” value is 26%. Further, in data set [5] (human, in vivo), the “NTDs not preventable by maternal treatment” value is reported as 30-50%. Moreover, in data set [5] (randomised clinical trials, administered early in pregnancy), the NTD recurrences prevented entry was “up to 70%”. Further, the “prevention of NTDs in ct/ct embryos” value in data set [6] was “not preventable”.

As to `Nc1ncnc2nc[nH]c12` [[^3H]-adenine], the “[^3H] incorporation into genomic DNA” value came out at 40.0 ± 6.6 cpm/μg in data set [4] (37,000 Bq/ml, 0.036 nmol/ml) and 82.8 ± 6.7 cpm/μg in data set [4] (74,000 Bq/ml, 0.07 nmol/ml).

The record behind these values is patent publication US20150352137A1, “THYMIDINE FOR PREVENTING NEURAL TUBE DEFECTS” (priority 2012, published 2015).
